Data taken from patent publication US12297457B2, “Esophageal tissue and/or organoid compositions and methods of making same” (Children's Hospital Medical Center, priority 2017, dated 2025).

Columns and labels:
[1] = test system: Xenopus endoderm explants; experiment: nkx2-1 in situ hybridization of Xenopus endoderm explants; type: cell-based, Xenopus laevis; conditions: sox2 morpholino knock down; explants analysed at stage NF35
Procedure: Xenopus laevis adults were purchased from the Nasco (Fort Atkinson, Wis.), and housed according to CCHMC IACUC protocols. Ovulation, in vitro fertilization, and de-jellying of embryos were performed as described (Sive et al., 2000). A mixture of previously validated Sox2 morpholinos (MOs; Van Raay et al., 2005) targeting the 5′UTR (Sox2-UTR MO) and the ATG start codon (Sox2-ATG MO) were injected at the 8-cell stage into each vegetal blastomere (2 ng total MO per blastomere, 8 ng total per embryo) to target endoderm. MOs were synthesized and purchased from GeneTools. Equal amount of control MO was used in control injections.
For Xenopus explant studies, stage NF20 foregut endoderm tissue was micro-dissected in 1×MBS (Modified Barth's Saline; Sive et al., 2000)+50 ug/mL gentamycin sulfate (MP Biochemicals), +4% Ficoll-400 (Sigma) and explants were then cultured in 0.5×MBS+0.1% Fatty Acid Free BSA (Fisher)+50 ug/mL gentamycin sulfate with or without the following concentrations of small molecules or recombinant proteins from stages […] (approximately 48 hours): 3.5 μM Bio (Tocris), 50 ng/mL recombinant human BMP4 (R&D systems).
In situ hybridization on mouse sections was performed by generating DIG-labeled probes from linearized mouse cDNA plasmids. […]

AFG spheroids = experiment: Dorsal-ventral patterning / respiratory induction of anterior foregut spheroids (qPCR, IF); type: cell-based, human; conditions: TGFβ inhibitor added during foregut induction; day 9 spheroids
Procedure: (§1) Alternately, for the generation of anterior foregut spheroids, from definitive endoderm, cells were treated with FGF4 (500 ng mL-1, R&D systems), Noggin (200 ng mL-1) for 3 days in RPMI 1640 with 2% dFBS. Additional factors were tested during this time (described in results), such as CHIR99021 (“chiron” or “chr”, 2 μM, Tocris), Wnt3a (500 ng mL-1, R&D systems), SB431542 (10 μM, Tocris), DEAB (10 μM, Sigma), and retinoic acid (2 μM).
Anterior foregut spheroids were transferred into 50 μL droplets of Matrigel, and are cultured for 3-58 days in the base (“Gut”) media of Advanced DMEM/F12 (ThermoFisher Scientific) supplemented with B27 supplement (1×, ThermoFisher Scientific), N2 supplement (1×, ThermoFisher Scientific), HEPES (13 mM, ThermoFisher Scientific), L-Glutamine (2 mM ThermoFisher Scientific), penicillin/streptomycin (1×, ThermoFisher Scientific), and EGF (100 ng mL^−1, R&D systems). In addition to this base media, the first three days were supplemented with Noggin (200 ng mL^−1), FGF10 (50 ng mL^−1), and CultureOne supplement (1×, ThermoFisher Scientific). […]
Spheroid and organoids were harvested in total, including the embedding matrigel. […] For qRT-PCR, Applicant used Quantitect SYBR-Green master mix (Qiagen) and ran the reaction on a QuantStudio 6 machine (ThermoFisher Scientific). […]

foregut spheroids = experiment: Anterior-posterior patterning of foregut spheroids (qPCR, IF); type: cell-based, human; conditions: TGFβ inhibitor added during foregut induction; SB431542, 10 μM
Procedure: Confluent hPSC cultures were treated with Acutase (STEMCELL Technologies) to resuspend as single cells in mTeSR1 and Y-27632 (10 μM, Tocris) and plated on Matrigel. On the following day, differentiation into definitive endoderm was carried out as previously described (McCracken et al., 2014). Briefly, cells were treated with Activin A (100 ng mL-1, R&D systems, Minneapolis, Minn.) and BMP4 (50 ng mL-1, R&D systems) on the first day in RPMI 1640 media (Life Technologies). Cells in the following two days were treated with only Activin A (100 ng mL-1) in RPMI 1640 with increasing concentrations 0.2% and 2% of HyClone defined fetal bovine serum (dFBS, GE Healthcare Life Sciences).
For anterior foregut monolayer cultures, cells were treated for 3 days in Noggin (200 ng mL-1) in RPMI 1640 with 2% dFBS, with all-trans retinoic acid (2 μM, Sigma, St. Louis, Mo.) the 3rd day.
as §1
Tissue cultures were fixed with 4% paraformaldehyde at either room temperature for 15 minutes, 4° C. for 2 hours for cryosectioning, or 4° C. overnight for paraffin embedding/sectioning and mouse embryos. For paraffin embedding and sectioning, following fixation, tissues were dehydrated and embedded into paraffin blocks. Afterwards, paraffin-sectioned slides were deparaffinized and subjected to antigen retrieval in 10 mM sodium citrate for 30 minutes prior to staining. For cryosectioning, tissues were thoroughly washed in PBS, left in 30% sucrose overnight, embedded in OCT compound (VWR), and sectioned at a thickness of 8 μm. Commonly, slides were then permeabilized with 0.5% TritonX-100 in PBS for 10 minutes, blocked in 5% normal donkey serum (Jackson ImmunoResearch) for 1 hour, and incubated in primary antibody overnight at 4° C. On the next day, slides were thoroughly washed in PBS, incubated in secondary antibody (at 1:500) for 1 hour, and then thoroughly washed again. For EdU visualization, Applicant used the Click-iT EdU Alexa Fluor 488 Imaging Kit (Invitrogen) prior to blocking. For wholemount immunofluorescence staining, embryos were placed in 100% methanol immediately after fixation. Embryos were then permeabilized with Dent's Bleach (4:1:1 MeOH:DMSO:30% H2O2) for 2 hours at room temperature, rehydrated with methanol washes, and blocked for several hours at room temperature to overnight at 4° C. Primary antibodies were applied and embryos incubated overnight at 4° C. Then, embryos were thoroughly washed in 0.1% TritonX-100 in PBS before incubating in secondary antibodies overnight at 4° C. Finally, embryos were washed again, dehydrated with methanol washes, and cleared with Murray's Clear (2:1 benzyl benzoate:benzyl alcohol, Sigma) at least 15 minutes prior to imaging. For a list of antibodies and dilutions used, please see Table 2.
Spheroid and organoids were harvested in total, including the embedding matrigel. Collagen plugs from the organotypic raft cultures were first removed from the transwell on day 14, and subsequently harvested in total. Total RNA was isolated using the NucleoSpin RNA kit (Macherey-Nagel) and reverse transcribed to cDNA using the SuperScript VILO cDNA synthesis kit (ThermoFisher Scientific). For qRT-PCR, Applicant used Quantitect SYBR-Green master mix (Qiagen) and ran the reaction on a QuantStudio 6 machine (ThermoFisher Scientific). For a list of primers used, please see Table 1.

[2] = test system: anterior foregut (AFG) cultures; experiment: Doxycycline-induced CDX2 in anterior foregut cultures (IF quantification); type: cell-based, human; conditions: AFG cultures treated for 1 day
Procedure: Human embryonic stem cell (hESC) line H1 (WA01, person) were purchased from WiCell. iPSC line iPS106 was generated in-house and approved by the institutional review board at CCHMC. All hPSCs were maintained on feeder-free cultures: cells were plated on hESC-qualified Matrigel (BD Biosciences, San Jose, Calif.) and maintained at 37° C. with 5% CO2 with daily replacement of mTeSR1 media (STEMCELL Technologies, Vancouver, Canada); cells were passaged routinely every 4 days using Dispase (STEMCELL Technologies). The HA-tagged SOX2, CDX2, or FANCA dox-inducible lines were generated by first cloning the human SOX2 ORF, CDX2 ORF, or FANCA ORF into pINDUCER20 (respectively) (Addgene #44012, Meerbrey et al., 2011). Next, lentivirus was generated with help of the Viral Vector Core Facility at CCHMC. The lentivirus for HA-SOX2 and CDX2 were transduced into hESCs with 2 μL of virus; these lines were maintained on selection with mTeSR1 and G418 (500 μg mL-1, ThermoFisher Scientific). The lentivirus for FANCA were transduced prior to the iPS106 line generation, as FANCA is required for maintenance of hPSC properties. The hESC H1 line (and transduced derivatives) was used in all experiments excluding Fanconi Anemia modeling in HEOs, which used the iPS106 line. […]

[3] = test system: dorsally-patterned AFG spheroids; experiment: Outgrowth of dorsally-patterned AFG spheroids into esophageal organoids; type: cell-based, human; conditions: added from day 6 to day 13
Procedure: Anterior foregut spheroids were transferred into 50 μL droplets of Matrigel, and are cultured for 3-58 days in the base (“Gut”) media of Advanced DMEM/F12 (ThermoFisher Scientific) supplemented with B27 supplement (1×, ThermoFisher Scientific), N2 supplement (1×, ThermoFisher Scientific), HEPES (13 mM, ThermoFisher Scientific), L-Glutamine (2 mM ThermoFisher Scientific), penicillin/streptomycin (1×, ThermoFisher Scientific), and EGF (100 ng mL^−1, R&D systems). In addition to this base media, the first three days were supplemented with Noggin (200 ng mL^−1), FGF10 (50 ng mL^−1), and CultureOne supplement (1×, ThermoFisher Scientific). FGF10 and CultureOne supplementation is continued until the end of the first week in three-dimensional culture. Media was replaced every 3-4 days. For EdU labeling, media was supplemented with EdU (10 μM Invitrogen) for a defined period of time, and was removed by washing with sterile PBS twice before replacing with media without EdU.

O=C1Nc2cc(Br)ccc2/C1=C1/Nc2ccccc2/C1=N\O [Bio]
nkx2-1 expression [1]: did not activate nkx2-1 expression

NC(=O)c1ccc(-c2nc(-c3ccc4c(c3)OCO4)c(-c3ccccn3)[nH]2)cc1 [TGFβ inhibitor, SB431542, reference compound]
upregulation of NKX2-1 on respiratory induction (AFG spheroids): reduces upregulation of NKX2-1
posterior foregut markers (foregut spheroids): increase in posterior foregut markers

C[C@H]1c2cccc(O)c2C(=O)C2=C(O)[C@]3(O)C(=O)C(C(N)=O)=C(O)[C@@H](N(C)C)[C@@H]3[C@@H](O)[C@@H]21 [doxycycline, Doxycycline]
doxycycline concentration at which CDX2 induction saturates [2]: 100 to 500 ng/mL

B1: FGF10: recombinant human FGF10 (protein, UniProt O15520 38-208, looked up)
Fibroblast growth factor 10: QALGQDMVSPEATNSSSSSFSSPSSAGRHVRSYNHLQGDVRWRKLFSFTKYFLKIEKNGKVSGTKKENCPYSILEITSVEIGVVAVKAINSNYYLAMNKKGKLYGSKEFNNDCKLKERIEENGYNTYASFNWQHNGRQMYVALNGKGAPRRGQKTRRKNTSAHFLPMVVHS
efficiency of spheroid to organoid outgrowth [3]: improved efficiency of spheroid to organoid outgrowth
patterning and differentiation into esophageal organoids ([3]; data not shown): did not affect
